Target: T1, Human TRPA1 (Homo sapiens, UniProt O75762)
T1 construct: expressed in transfected cells; host or cells: CHO cells
Test: 45Calcium uptake assay: inhibition of AITC induced cellular uptake of radioactive calcium
Assay type: cell-based
Conditions: AITC (30 μM) induced 45Ca uptake, Human TRPA1 expressing CHO cells; for inhibition at 1 µM: 1.0 μM test compound, read-out: Percentage inhibition at 1.0 μM; for inhibition at 10 µM: 10.0 μM test compound, read-out: Percentage inhibition at 10.0 μM; for IC50: read-out: Human IC50 value (range)
Method in brief: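 CHO cells stably expressing human TRPA1 (~50,000/well) preincubated 10 min with compound (0.5% DMSO, medium with 0.1% BSA, 1.8 mM CaCl2), then 30 μM AITC plus 5 μCi/ml 45Ca2+ for 3 min. Lysate radioactivity counted by scintillation; IC50 by nonlinear regression of % maximal uptake.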

T1 sequence (O75762 whole entry): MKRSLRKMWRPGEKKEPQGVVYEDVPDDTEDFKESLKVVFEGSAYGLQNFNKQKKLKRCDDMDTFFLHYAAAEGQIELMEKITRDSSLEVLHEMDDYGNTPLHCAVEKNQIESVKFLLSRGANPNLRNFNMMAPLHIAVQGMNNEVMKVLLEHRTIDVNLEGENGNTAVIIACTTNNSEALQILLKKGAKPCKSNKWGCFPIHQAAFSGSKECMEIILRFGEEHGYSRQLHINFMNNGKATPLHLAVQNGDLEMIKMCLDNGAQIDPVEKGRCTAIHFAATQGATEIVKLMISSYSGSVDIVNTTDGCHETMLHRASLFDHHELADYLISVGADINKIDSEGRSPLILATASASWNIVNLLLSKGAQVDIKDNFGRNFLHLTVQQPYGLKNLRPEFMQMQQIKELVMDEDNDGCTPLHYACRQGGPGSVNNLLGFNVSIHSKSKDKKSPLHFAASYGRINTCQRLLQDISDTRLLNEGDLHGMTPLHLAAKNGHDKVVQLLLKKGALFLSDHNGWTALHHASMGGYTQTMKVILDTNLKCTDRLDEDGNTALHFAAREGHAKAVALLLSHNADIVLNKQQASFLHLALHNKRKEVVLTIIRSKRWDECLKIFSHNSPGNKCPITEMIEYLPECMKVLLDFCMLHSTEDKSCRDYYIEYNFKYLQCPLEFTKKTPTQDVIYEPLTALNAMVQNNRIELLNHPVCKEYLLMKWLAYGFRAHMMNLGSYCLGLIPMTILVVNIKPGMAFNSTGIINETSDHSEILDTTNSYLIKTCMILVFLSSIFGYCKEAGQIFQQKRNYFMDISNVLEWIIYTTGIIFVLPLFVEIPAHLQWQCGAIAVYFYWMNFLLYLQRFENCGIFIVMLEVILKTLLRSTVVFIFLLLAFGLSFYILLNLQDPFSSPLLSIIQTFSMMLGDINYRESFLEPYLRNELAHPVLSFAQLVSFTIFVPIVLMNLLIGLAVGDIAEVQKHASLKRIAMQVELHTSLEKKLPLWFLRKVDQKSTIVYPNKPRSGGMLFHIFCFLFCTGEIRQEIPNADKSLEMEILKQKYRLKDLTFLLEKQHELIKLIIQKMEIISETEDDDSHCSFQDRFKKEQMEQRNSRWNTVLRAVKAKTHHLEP

Compound	inhibition at 1 µM [%]	inhibition at 10 µM [%]	IC50 [nM]
Cn1nc2c(c1CC(=O)Nc1nc(-c3cc(F)cc(C(F)(F)F)c3)cs1)c(=O)n(C)c(=O)n2C [Example 58, N-{4-[3-Fluoro-5-(trifluoromethyl)phenyl]-1,3-thiazol-2-yl}-2-(2,5,7-trimethyl-4,6-dioxo-4,5,6,7-tetrahydro-2H-pyrazolo[3,4-d]pyrimidin-3-yl)acetamide]	94.6	99.2	< 50
CC(C)CCOc1c(F)cc(-c2csc(NC(=O)Cn3ccc4c3c(=O)n(C)c(=O)n4C)n2)cc1F [Example 7, N-{4-[3,5-Difluoro-4-(3-methylbutoxy)phenyl]-1,3-thiazol-2-yl}-2-(1,3-dimethyl-2,4-dioxo-1,2,3,4-tetrahydro-5H-pyrrolo[3,2-d]pyrimidin-5-yl)acetamide]	35.5	37.3	–
Cc1cc2c(c(=O)n(C)c(=O)n2C)n1CC(=O)Nc1nc(-c2cc(F)c(OCC(F)(F)F)c(F)c2)cs1 [Example 26, N-[4-(3,5-Difluoro-4-(2,2,2-trifluoroethoxy)phenyl)-1,3-thiazol-2-yl]-2-(1,3,6-trimethyl-2,4-dioxo-1,2,3,4-tetrahydro-5H-pyrrolo[3,2-d]pyrimidin-5-yl)acetamide]	95.3	98.3	< 50
Cc1cc2c(c(=O)n(C)c(=O)n2C)n1CC(=O)Nc1nc(-c2cc(F)c(OCC(C)(C)C)c(Cl)c2)cs1 [Example 28]	99.5	99.7	< 50
CN(C)Cc1cn(CC(=O)Nc2nc(-c3cc(F)c(OCC(C)(C)C)c(F)c3)cs2)c2c(=O)n(C)c(=O)n(C)c12 [Example 39]	4.89	21.1	–
Cn1c(=O)c2c(cnn2CC(=O)Nc2nc(-c3ccc(F)c(C(F)(F)F)c3F)cs2)n(C)c1=O [Example 71, N-{4-[2,4-Difluoro-3-(trifluoromethyl)phenyl]-1,3-thiazol-2-yl}-2-(4,6-dimethyl-5,7-dioxo-4,5,6,7-tetrahydro-1H-pyrazolo[4,3-d]pyrimidin-1-yl)acetamide]	78.2	99.3	50 to 100
Cn1nc2c(c1CC(=O)Nc1nc(-c3ccc(Cl)cc3)cs1)c(=O)n(C)c(=O)n2C [Example 46, N-[4-(4-Chlorophenyl)-1,3-thiazol-2-yl]-2-(2,5,7-trimethyl-4,6-dioxo-4,5,6,7-tetrahydro-2H-pyrazolo[3,4-d]pyrimidin-3-yl)acetamide]	89.3	96.6	> 100
Cn1c(=O)c2c(ccn2CC(=O)Nc2nc(-c3cc(F)c(OCCC(F)(F)F)c(F)c3)cs2)n(C)c1=O [Example 12, N-{4-[3,5-Difluoro-4-(3,3,3-trifluoropropoxy)phenyl]-1,3-thiazol-2-yl}-2-(1,3-dimethyl-2,4-dioxo-1,2,3,4-tetrahydro-5H-pyrrolo[3,2-d]pyrimidin-5-yl)acetamide]	97.4	96	< 50
Cn1c(=O)c2c(CC(=O)Nc3nc(-c4cc(F)c(OCC(F)(F)F)c(F)c4)cs3)cn(C)c2n(C)c1=O [Example 44, N-{4-[3,5-Difluoro-4-(2,2,2-trifluoroethoxy)phenyl]-1,3-thiazol-2-yl}-2-(1,3,7-trimethyl-2,4-dioxo-2,3,4,7-tetrahydro-1H-pyrrolo[2,3-d]pyrimidin-5-yl)acetamide]	27.1	77	–
Cn1nc2c(c1CC(=O)Nc1nc(-c3ccc(C(F)(F)F)cc3)cs1)c(=O)n(C)c(=O)n2C [Example 47, N-{4-[4-(Trifluoromethyl)phenyl]-1,3-thiazol-2-yl}-2-(2,5,7-trimethyl-4,6-dioxo-4,5,6,7-tetrahydro-2H-pyrazolo[3,4-d]pyrimidin-3-yl)acetamide]	99	99.5	< 50
Cn1c(=O)c2c(ccn2CC(=O)Nc2nc(-c3cc(F)c(OCC4CC4)c(F)c3)cs2)n(C)c1=O [Example 17, 2-(1,3-Dimethyl-2,4-dioxo-1,2,3,4-tetrahydro-5H-pyrrolo[3,2-d]pyrimidin-5-yl)-N-{4-[4-(cyclopropylmethoxy)-3,5-difluorophenyl]-1,3-thiazol-2-yl}acetamide]	33.5	49.9	–
Cn1c(=O)c2c(cnn2CC(=O)Nc2nc(-c3cc(F)c(OCC(F)(F)F)c(F)c3)cs2)n(C)c1=O [Example 73, N-{4-[3,5-Difluoro-4-(2,2,2-trifluoroethoxy)phenyl]-1,3-thiazol-2-yl}-2-(4,6-dimethyl-5,7-dioxo-4,5,6,7-tetrahydro-1H-pyrazolo[4,3-d]pyrimidin-1-yl)acetamide]	99.1	99.9	< 50

From patent US9000159B2 (Glenmark Pharmaceuticals, S.A., priority 2009, dated 2015)
